# Test results as given in publication PMC12518639, “Apomorphine is a novel necroptosis inhibitor targeting mixed lineage kinase domain-like protein oligomerization” (Cell Death Discovery, 2025).
# Experiments:
# Nt-hMLKL^C86A/L89A/D94A = molecular target: T1, Nt-hMLKL^C86A/L89A/D94A (Homo sapiens, UniProt Q8NB16, C86A/D94A/L89A); assay: SPR binding to Nt-hMLKL triple mutant; settings: CM5 chip
# T1 construct: an N-terminal domain (Nt-hMLKL, amino acids 2–154, MW: 23 kDa) involved in oligomerization; His (N); made in house; host or cells: E. coli BL21
# Text: The hMLKL plasmid (RC213152, OriGene, Rockville, MD, USA), and recombinant Wt-hMLKL (ab241453, Abcam) and Wt-mMLKL (MBS1379843, MyBioSource, San Diego, CA, USA) proteins were purchased. Nt-hMLKL (2–154), Nt-mMLKL (1–180), and Ct-hMLKL (183–471) were generated using the pBT7-N-His vector. Nt-hMLKL^C86A, Nt-hMLKL^F148A, -hMLKL^C86A/L89A/D94A, and Nt-hMLKL^R145A/R146A/F148A/M150A were generated using the Site-directed Mutagenesis Kit (EZ004S, Enzynomics, S. Korea). These constructs were subcloned into pBT7-N-His and pET-15b plasmid vectors. E. coli BL21 cells transformed with the cloned expression vectors were cultured in LB medium and supplemented with 100 μg/mL ampicillin until an OD at 600 nm of 0.5–0.6 was reached. The cultures were induced by 1 mM IPTG (367-93-1, Sigma-Aldrich). The cells were lysed and centrifuged. The clear supernatants were subjected to Ni-NTA affinity chromatography (175018169, QIAGEN, Hilden, Germany). Plasmids encoding mMLKL (1–464)–gyrase fusion constructs were kindly provided by Prof. […]
# The interactions of Wt-hMLKL, Wt-mMLKL, Nt-mMLKL, Nt, and Ct-hMLKL proteins with Re-APO or Ox-APO were detected through SPR analysis using Biacore™ T200 (Cytiva, Marlborough, MA, USA). […] Sensorgrams were recorded and analyzed in real-time using the control software in the BIAcore T200 system. All data were analyzed using the BIA evaluation software (Cytiva).
# p-MLKL and p-RIP1 = assay: Western blot of cytosol and membrane fractions; format: cell-based, human; settings: THP-1, TBZ, 20 μM
# Description: The cells were harvested and lysed in 1× RIPA buffer (R4100-010, GenDEPOT, Katy, TX, USA) containing protease (P3100-001, GenDEPOT) and phosphatase (1862495, Thermo Fisher Scientific) inhibitors. WCLs were then centrifuged at 20,000×g for 30 min at 4 °C and subjected to non-reducing or reducing 8–12% SDS-PAGE gel electrophoresis. The membrane was blocked with 5% non-fat milk in TBS and probed with antibodies. Antibodies to hMLKL (14993S), mMLKL (97705S), phospho-hMLKL (Ser358) (91689S), phospho-mMLKL (Ser345) (37333S), phospho-hRIP1 (Ser166) (65746S), mRIP1 (3493S), phospho-mRIP1 (Ser321) (38662S), phospho-hRIP3 (Ser227) (93654), mRIP3 (95702S), p-mRIP3 (Thr231/Ser232) (91702S), and LDH (2012S) (Cell Signaling Technology, Danvers, MA, USA), and GAPDH (LF-PA0018, Abfrontier, S. Korea), hRIP1 (ab72139, Abcam, Cambridge, UK), hRIP3 (sc-135170, Santa Cruz Biotechnology, Dallas, TX, USA), HMGB1 (ab78923, Abcam), and LAMP1 (ab24170, Abcam) antibodies were used.
# Cell membrane fractionation was performed to determine whether MLKL oligomers were retained in the cell membrane fraction. Briefly, THP-1 cells were harvested and resuspended in 20 mM TBS (pH 7.4) containing 10 mM KCl, 1 mM MgCl2, protease inhibitor (P3100-001, GenDEPOT), and phosphatase inhibitor (1862495, Thermo Fisher Scientific). The cell suspension was passed through a 22-gauge needle and centrifuged at 20,000×g for 15 min and stored as the cytoplasmic fraction. The pellet was resuspended in lysis buffer and stored as the crude membrane fraction.
# Fig. S1 Assessment of p-MLKL inhibition to identify MLKL-targeting molecules. (A) Quantification graph corresponding to Fig. 1C. THP-1 cells were treated with TBZ in the presence of secondarily selected compounds (S1–S72, 20 μM). Whole-cell lysates (WCLs) were collected and subjected to Western blot analysis under reducing conditions using antibodies against p-MLKL, MLKL, and GAPDH. The p-MLKL/MLKL ratio was quantified and compared to that of TBZ-treated cells. Data represent the mean of three independent experiments. (B) Quantification graph corresponding to Fig. 1D. THP-1 cells were treated with TBZ in the presence of third-round selected compounds (S1–S62, 20 μM). Cytosolic and membrane fractions were collected and analyzed by Western blot under reducing conditions. The levels of p-MLKL and p-RIP1 were normalized to LDH (cytosolic marker) and LAMP1 (membrane marker), respectively. Quantified ratios were compared to those of TBZ-treated cells (n = 3 independent experiments).
# T1 sequence (Q8NB16 2-154 C86A/L89A/D94A): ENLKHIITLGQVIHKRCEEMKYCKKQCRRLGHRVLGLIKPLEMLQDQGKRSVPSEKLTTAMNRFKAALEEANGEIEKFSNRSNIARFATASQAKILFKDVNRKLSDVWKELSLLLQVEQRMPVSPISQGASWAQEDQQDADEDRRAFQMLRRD
SMILES,binding in SPR (Nt-hMLKL^C86A/L89A/D94A),p-MLKL levels in the cytosolic fraction (p-MLKL and p-RIP1),p-MLKL levels in the membrane fraction (p-MLKL and p-RIP1)
CN1CCc2cccc3c4c(cc1c23)C=CC(=O)C4=O [Ox-APO],no binding,–,–
"CN1CCc2cccc3c2[C@@H]1Cc1ccc(O)c(O)c1-3 [S62, (6aS)-6-methyl-5,6,6a,7-tetrahydro-4H-dibenzo[de,g]quinoline-10,11-diol]",–,little or moderate inhibition,significantly inhibited
